Results on two compounds are retold here after patent US5612363A, “N,N-di(aryl) cyclic urea derivatives as anti-coagulants” (Berlex Laboratories, Inc., priority 1995, dated 1997).

For assay [1], the target named is T1, Human tissue plasminogen activator (tPA) (Two chains, Sigma) (Homo sapiens, UniProt P00750).
T1 construct: (tPA) (Two chains, Sigma); purchased Sigma
The assay can be described thus: In vitro chromogenic assay for tissue plasminogen activator (S2288 cleavage). It counts as biochemical. To be noted: assay buffer pH 7.5, ambient temperature; read-out: Km (substrate concentration equal to Km). The method, then:
(§1) The activities were determined as an initial rate of cleavage of the peptide p-nitroanilide by the enzyme. The cleavage product, p-nitroaniline, absorbs at 405 nm with a molar extinction coefficient of 9920M^-1 cm^-1.
(§2) 50 mM TrisHCl, 150 mM NaCl, 2.5 mM CaCl2, and 0.1% polyethylene glycol 6000, pH 7.5.
3. Human tissue plasminogen activator (tPA) (Two chains, Sigma) stock solution: 1 mg/mL, stored at -80° C. (working solution (2×): 1361 ng/mL in assay buffer, prepare prior to use).
3. S2288 (tPA assay) stock solution: 10 mM in dH2 O, stored at 4° C. (working solution (4×): 1484 μM in assay buffer). (All substrate working solutions were prepared on assay […].)
Assays were performed in 96-well microtiter plates in a total volume of 200 μl. […] Concentrations of the standard inhibitor compound in the assay were from 5 μM to 0.021 μM in 1 to 3 dilution. Concentration of the test compounds in the assay typically were from 10 μM to 0.041 μM in 1 to 3 dilution. For potent test compounds, the concentrations used in the factor Xa assay were further diluted 100 fold (100 nM to 0.41 nM) or 1000 fold (10 nM to 0.041 nM). All substrate concentrations used are equal to their Km values under the present assay conditions. Assays were performed at ambient temperature. […]
(§3) The enzyme kinetics were measured at 405 nm, at 10 seconds interval, for five minutes in a THERMOmax plate reader at ambient temperature.

A further assay addresses T2, Human thrombin (Homo sapiens, UniProt P00734).
T2 construct: Human thrombin stock solution; purchased Enzyme Research Lab
The experiment in a line: In vitro chromogenic assay for thrombin (S2302 cleavage). To be noted: assay buffer pH 7.5, ambient temperature; read-out: Km (substrate concentration equal to Km). Type of assay: biochemical. On the procedure: as §1, §2
2. Human thrombin stock solution: Stored at -80° C. (working solution (2×): 1200 ng/mL or 40 nM in assay buffer, prepare prior to use).
1. S2222 (FXa assay) stock solution: 6 mM in dH2 O, store at 4° C. (working solution (4×): 656 μM in assay buffer). p1 2. S2302 (Thrombin assay) stock solution: 10 mM in dH2 O, stored at 4° C. (working solution (4×): 1200 μM in assay buffer).
Assays were performed in 96-well microtiter plates in a total volume of 200 μl. […] Concentrations of the standard inhibitor compound in the assay were from 5 μM to 0.021 μM in 1 to 3 dilution. Concentration of the test compounds in the assay typically were from 10 μM to 0.041 μM in 1 to 3 dilution. […]
as §3
Enzyme rates were calculated as mOD/min based on the first two minutes readings. The IC50 values were determined by fitting the data to the log-logit equation (linear) or the Morrison equation (non-linear) with an EXCEL spread-sheet. […]

Residues, ends and D or L forms follow the SMILES beside them.

T1 sequence (P00750 311-562 limits assumed): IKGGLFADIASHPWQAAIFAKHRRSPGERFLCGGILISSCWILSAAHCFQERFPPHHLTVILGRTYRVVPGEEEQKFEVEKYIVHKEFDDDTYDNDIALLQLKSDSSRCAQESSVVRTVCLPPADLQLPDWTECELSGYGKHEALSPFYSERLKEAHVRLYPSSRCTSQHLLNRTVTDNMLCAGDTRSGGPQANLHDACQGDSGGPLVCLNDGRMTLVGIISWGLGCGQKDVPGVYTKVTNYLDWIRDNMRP
T1 sequence (P00750 36-310 partner limits assumed): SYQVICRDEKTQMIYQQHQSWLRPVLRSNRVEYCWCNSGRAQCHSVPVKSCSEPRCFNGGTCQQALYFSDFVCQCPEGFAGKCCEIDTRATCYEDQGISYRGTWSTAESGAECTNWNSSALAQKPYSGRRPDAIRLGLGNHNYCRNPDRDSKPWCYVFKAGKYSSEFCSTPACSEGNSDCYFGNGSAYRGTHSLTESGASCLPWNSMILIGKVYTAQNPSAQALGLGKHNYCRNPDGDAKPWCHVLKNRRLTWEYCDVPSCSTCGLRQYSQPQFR

With `CC[C@@H](C)[C@@H](N)C(=O)N1CCC[C@H]1C(=O)N[C@@H](CCCN=C(N)N)C(=O)Nc1ccc([N+](=O)[O-])cc1` [Example S2288] (HELM PEPTIDE1{[dI].P.R.[O=[N+]([O-])c1ccc(N[*:1])cc1]}$$$$V2.0), the Km in assay [1] stood at 371 µM.
In the case of `N=C(N)NCCC[C@H](NC(=O)[C@H](Cc1ccccc1)NC(=O)[C@H]1CCCN1)C(=O)Nc1ccc([N+](=O)[O-])cc1` [Example S2302] (HELM PEPTIDE1{[dP].F.R.[O=[N+]([O-])c1ccc(N[*:1])cc1]}$$$$V2.0), the Km at Human thrombin was 300 µM.
